pIC50: −log10 of the molar value.
Assays:
Plasmodium berghei [1] = experiment: Antimalarial activity against liver stages of Plasmodium berghei […] infected in human Hepa1-6 cells assessed as reduction in liver parasite load at 10 uM/L incubated for 1 hr prior to sporozoite inoculation measured after 46 to 48 hrs by fluorescence microscope; assay type: functional; set-up: scale not given: the % may be the effect or the level left
Plasmodium yoelii [2] = experiment: Antimalarial activity against Plasmodium yoelii infected in mouse assessed as protection against parasitic infection at 160 mg/kg, po; assay type: functional
Plasmodium yoelii [3] = experiment: Antimalarial activity against liver stages of Plasmodium yoelii after 96 hrs; assay type: functional, organism-based; details: for pIC50: Plasmodium yoelii, 96 h
Plasmodium falciparum [4] = experiment: Antimalarial activity against liver stages of Plasmodium falciparum after 96 hrs; assay type: functional, organism-based
Plasmodium berghei [5] = experiment: Antimalarial activity against liver stages of Plasmodium berghei in human HepG2 cells assessed as inhibition of exoerythrocytic development at 1.85 nM administered 3 hrs after sporozite invasion measured after 48 hrs; assay type: functional
Plasmodium berghei [6] = experiment: Antimalarial activity against liver stages of Plasmodium berghei assessed as inhibition of cytochrome bc1 complex; assay type: functional, organism-based
Plasmodium falciparum [7] = experiment: Antimalarial activity against liver stages of Plasmodium falciparum NF54 infected in human HepG2-A16 cells expressing CD81 assessed as growth inhibition of hepatic parasite after 5 days by fluorescence microscopy; assay type: functional, organism-based; details: NF54, HepG2A16, Liver, 120 h
Plasmodium yoelii yoelii [8] = experiment: Antimalarial activity against liver stages of Plasmodium yoelii yoelii in mouse hepatocytes assessed as growth inhibition; assay type: functional, organism-based; details: Hepatocyte
Plasmodium berghei [9] = experiment: Antimalarial activity against Plasmodium berghei ANKA infected in C57BL/6 mouse assessed as increase in resistance of mouse to cerebral malaria at 10 mg/kg, ip; assay type: functional; details: route intraperitoneal
Plasmodium berghei [10] = experiment: Antimalarial activity against Plasmodium berghei ANKA infected in human Huh7 cells after 24 hrs by qRT-PCR; assay type: functional, organism-based; details: Huh-7, 24 h
Plasmodium yoelii [11] = experiment: Antimalarial activity against liver stages of Plasmodium yoelii 17XNL infected in Swiss Webster mouse assessed as reduction in liver parasite load at 100 mg/kg, po co-administered with 50 mg/kg ritonavir incubated for 6 hrs prior to sporozoite inoculation measured after 18 hrs; assay type: functional; set-up: scale not given: the % may be the effect or the level left
Plasmodium yoelii [12] = experiment: Antimalarial activity against liver stages of Plasmodium yoelii 17XNL infected in Swiss Webster mouse assessed as reduction in liver parasite load at 25 mg/kg, po co-administered with 12.5 mg/kg ritonavir incubated for 6 hrs prior to sporozoite inoculation measured after 18 hrs; assay type: functional; set-up: scale not given: the % may be the effect or the level left
Plasmodium falciparum [13] = experiment: Antimalarial activity against liver stages of Plasmodium falciparum NF54 infected in human hepatocytes assessed as growth inhibition of hepatic parasite after 5 days by fluorescence microscopy; assay type: functional, organism-based; details: NF54, Hepatocyte, 120 h
Plasmodium cynomolgi = experiment: Antimalarial activity against liver stages of Plasmodium cynomolgi infected in human HepG2 cells assessed as growth inhibition of hepatic parasite after 3 days; assay type: functional, organism-based; details: 72 h
Plasmodium berghei [14] = experiment: Antimalarial activity against liver stages of Plasmodium berghei; assay type: functional, organism-based
Plasmodium berghei [15] = experiment: Antimalarial activity against Plasmodium berghei ANKA expressing GFP infected in C57BL/6 mouse assessed as reduction of liver infection at 200 mg/kg, po incubated for 6 hrs prior to sporozoite inoculation measured after 40 hrs by qRT PCR; set-up: scale not given: the % may be the effect or the level left
Plasmodium yoelii [16] = experiment: Antimalarial activity against Plasmodium yoelii infected in po dosed mouse assessed as minimum dose required to protection against 100% parasitic infection; assay type: functional; details: read-out: MED
Plasmodium yoelii [17] = experiment: Antimalarial activity against liver stages of Plasmodium yoelii after 96 hrs
Plasmodium yoelii [18] = experiment: Antimalarial activity against Plasmodium yoelii infected in mouse assessed as protection against parasitic infection at 5 mg/kg, po; assay type: functional
Plasmodium falciparum [19] = experiment: Antimalarial activity against liver stages of Plasmodium falciparum NF54 in mouse after 72 to 120 hrs by immunofluorescence assay; assay type: functional, organism-based
Plasmodium yoelii yoelii [20] = experiment: Antimalarial activity against liver stages of Plasmodium yoelii yoelii 265 BY infected in mouse after 48 hrs by immunofluorescence assay; assay type: functional, organism-based
Plasmodium yoelii [21] = experiment: Antimalarial activity against Plasmodium yoelii infected in CD-1 mouse assessed as efficacy at 40 mg/kg, po after 2 hrs; assay type: functional
Plasmodium yoelii [22] = experiment: Antimalarial activity against Plasmodium yoelii infected in CD-1 mouse assessed as efficacy at 40 mg/kg, ip; assay type: functional; details: route intraperitoneal
Plasmodium vivax = experiment: Antimalarial activity against Plasmodium vivax assessed as effect on cure rate after 28 days; assay type: functional
Plasmodium yoelii [23] = experiment: Antimalarial activity against Plasmodium yoelii infected in CD-1 mouse assessed as efficacy at 160 mg/kg, po after 2 hrs; assay type: functional
Plasmodium yoelii [24] = experiment: Antimalarial activity against Plasmodium yoelii infected in CD-1 mouse assessed as efficacy at 160 mg/kg, ip; assay type: functional; details: route intraperitoneal
Plasmodium yoelii [25] = experiment: Antimalarial activity against liver stages of Plasmodium yoelii infected in mouse assessed as protection against parasitic infection at 50 mg/kg, po after 7 days; assay type: functional
Plasmodium yoelii [26] = experiment: Antimalarial activity against liver stages of Plasmodium yoelii assessed as inhibition of cytochrome bc1 complex; assay type: functional, organism-based
Plasmodium yoelii [27] = experiment: Antimalarial activity against liver stages of Plasmodium yoelii; assay type: functional, organism-based
Plasmodium berghei [28] = experiment: Antimalarial activity against Plasmodium berghei infected in […] 1-6 cells assessed as inhibition of host cell sporozoite invasion at 10 uM preincubated for 10 mins measured after 1 hr; assay type: functional; details: Hepa1-6
Plasmodium berghei [29] = experiment: Antimalarial activity against liver stages of Plasmodium berghei assessed as human HepG2 cells assessed as inhibition of hepatic parasite growth after invasion of hepatocytes incubated for 48 hrs followed by compound wash out measured after 2 days by RT-PCR analysis; assay type: functional, organism-based
Plasmodium berghei [30] = experiment: Antimalarial activity against liver stages of Plasmodium berghei infected in human HepG2 cells assessed as growth inhibition of hepatic parasite before invasion of hepatocytes incubated for 48 hrs followed by compound wash out measured after 3 days by RT-PCR analysis; assay type: functional, organism-based
Plasmodium yoelii [31] = experiment: Antimalarial activity against liver stages of Plasmodium yoelii 17XNL expressing GFP infected in human HepG2 cells transfected with CD81 assessed as growth inhibition of hepatic parasite after 40 hrs by flow cytometry; assay type: functional, organism-based

Work on `CC(C)(C)NC(=O)[C@@H]1C[C@@H]2CCCC[C@@H]2CN1C[C@@H](O)[C@H](Cc1ccccc1)NC(=O)[C@H](CC(N)=O)NC(=O)c1ccc2ccccc2n1` yielded an Activity (Plasmodium berghei [1]) of 55%.

`CCOC(=O)/N=C(\NC1=NC(=O)C(=O)N1C(C)C)Nc1ccc(Cl)c(Cl)c1` was tested, and the Activity (Plasmodium yoelii [2]) was 100%.

Work on `C[C@]1(C(=O)O)CSC(c2ncccc2O)=N1` [DESFERRITHIOCIN] yielded a pIC50 (Plasmodium yoelii [3]) of 5.00 and a pIC50 (Plasmodium falciparum [4]) of 5.54.

`CC(C)N1C(=O)C(=O)N=C1N/C(=N\C(=O)OC(C)(C)C)Nc1ccc(Cl)c(Cl)c1` gave an Activity (Plasmodium yoelii [2]) of 100%.

Compound `O=C1C(O)=C([C@H]2CC[C@H](c3ccc(Cl)cc3)CC2)C(=O)c2ccccc21` [ATOVAQUONE] has an inhibition in vivo at 0.00185 µM (Plasmodium berghei [5]) of 50%, a pIC50 (Plasmodium berghei [6]) of 7.71 and a pIC50 (Plasmodium falciparum [7]) of 8.40.

Compound `NCCCCN(CCCN)C(=O)CCCCCCCCCCCOCc1ccc2c(c1)[C@@H]1C[C@]3(CCCCO3)NC3=N[C@]4(CCCCO4)C[C@H]2N31` has a pIC50 (Plasmodium yoelii yoelii [8]) of 5.04.

Compound `C[C@H](NC(=O)[C@@H](O)c1cc(F)cc(F)c1)C(=O)N[C@@H]1C(=O)N(C)c2ccccc2-c2ccccc21` has an Activity (Plasmodium berghei [9]) of 55% and a pIC50 (Plasmodium berghei [10]) of 4.10.

Compound `Cc1cccc(C)c1OCC(=O)N[C@@H](Cc1ccccc1)[C@@H](O)C[C@H](Cc1ccccc1)NC(=O)[C@H](C(C)C)N1CCCNC1=O` [LOPINAVIR] has an Activity (Plasmodium yoelii [11]) of 93%, an Activity (Plasmodium berghei [1]) of 38% and an Activity (Plasmodium yoelii [12]) of 45%.

For `COC1=C2[C@H]3NCC[C@]2(C[C@H](O)[C@@H]1O)c1c(ccc(OC)c1O)[C@H]3O` [TAZOPSINE], the pIC50 (Plasmodium falciparum [13]) was 5.38.

Compound `CCc1nc(N)nc(N)c1-c1ccc(Cl)cc1` [PYRIMETHAMINE] has a pIC50 (Plasmodium cynomolgi) of 5.99.

For `O=c1c(-c2ccc(O)cc2)coc2cc(O)cc(O)c12` [GENISTEIN], the pIC50 (Plasmodium berghei [14]) was 4.70 and the Activity (Plasmodium berghei [15]) was 64%.

`CC(C)COC(=O)/N=C(\NC1=NC(=O)C(=O)N1C(C)C)Nc1ccc(Cl)c(Cl)c1` was tested, and the minimal effective dose (Plasmodium yoelii [16]) was 40 mg/kg and the Activity (Plasmodium yoelii [2]) was 100%.

With `C[C@@H](CN1CC(=O)NC(=O)C1)N1CC(=O)NC(=O)C1` [DEXRAZOXANE] the INH (Plasmodium yoelii [3]) was 50 µM and the INH (Plasmodium yoelii [17]) was 50 µM.

Compound `CC(=O)N(O)CCCCCNC(=O)CCC(=O)N(O)CCCCCNC(=O)CCC(=O)N(O)CCCCCN` [DEFEROXAMINE] has a pIC50 (Plasmodium yoelii [3]) of 4.70 and a pIC50 (Plasmodium falciparum [4]) of 5.47.

Work on `CC(C)COC(=O)N/C(=N/C(C)C)NC1=NC(=O)C(=O)N1c1ccc(Cl)c(Cl)c1` yielded an Activity (Plasmodium yoelii [18]) of 100%.

`Cc1c(F)c(N2CCNC(C)C2)cc2c1c(=O)c(C(=O)O)cn2C1CC1` (stereo not drawn) [GREPAFLOXACIN] was tested, and the pIC50 (Plasmodium falciparum [19]) was 5.00 and the pIC50 (Plasmodium yoelii yoelii [20]) was 5.00.

For `CC[C@H]1OC(=O)[C@H](C)[C@@H](O[C@H]2C[C@@](C)(OC)[C@@H](O)[C@H](C)O2)[C@H](C)[C@@H](O[C@@H]2O[C@H](C)C[C@H](N(C)C)[C@H]2O)[C@](C)(O)C[C@@H](C)CN(C)[C@H](C)[C@@H](O)[C@]1(C)O` [AZITHROMYCIN], the Efficacy (Plasmodium yoelii [21]) was 40%, the Efficacy (Plasmodium yoelii [22]) was 80% and the Activity (Plasmodium vivax) was 58%. The Efficacy (Plasmodium yoelii [23]) was 100% and the Efficacy (Plasmodium yoelii [24]) was 100%.

Compound `C[C@H]1c2cccc(O)c2C(=O)C2=C(O)[C@]3(O)C(=O)C(C(N)=O)=C(O)[C@@H](N(C)C)[C@@H]3[C@@H](O)[C@@H]21.O` [DOXYCYCLINE] has an Efficacy (Plasmodium yoelii [22]) of 40%, an Activity (Plasmodium vivax) of 56% and an Efficacy (Plasmodium yoelii [24]) of 100%.

`CCCCCCCCCCOc1cc2c(O)c(C(=O)OCC)cnc2cc1OCC` [DECOQUINATE] showed an Activity (Plasmodium yoelii [25]) of 80% and a pIC50 (Plasmodium yoelii [26]) of 9.75.

With `CN1CN(Cc2ccccc2)C(=O)N[C@@H](Cc2ccccc2)C1=O` the pIC50 (Plasmodium yoelii [27]) was < 3.70.

`C=CCS[S+]([O-])CC=C` (stereo not drawn) [ALLICIN] was tested, and the inhibition at 10 µM (Plasmodium berghei [28]) was 37%, the pIC50 (Plasmodium berghei [29]) was 4.40 and the pIC50 (Plasmodium berghei [30]) was 5.17. It also gave a pIC50 (Plasmodium yoelii [31]) of 4.40.

In the case of `CN1CNC(=O)N[C@H](Cc2ccccc2)C1=O`, the pIC50 (Plasmodium yoelii [27]) was < 3.70.
